# Experimental data: patent US10947284B2, “Fusion molecules” (Pieris Pharmaceuticals GMBH, priority 2015, dated 2021)
# Starred links: 1 amine or outer side, 2 acyl side, 3 side chain; linkers in the order of their positions; H or OH if unused. Non-standard residues stand in square brackets, D forms with d. Residues, ends and D or L forms follow the SMILES beside them. *: point of attachment. X1 = O=C([C@@H]1CCNc2c(N[*:1])cc3cc(O)c(O)cc3[n+]21)[*:2]; dOrn(N5-OH,N5-CHO) = N[C@H](CCCN(O)C=O)C(=O)O; d(aThr) = C[C@@H](O)[C@@H](N)C(=O)O; Suc = O=C(CCC(=O)[*:2])[*:1]; X2 = O=C1[C@@H](N*)CCCN1[O-]; Orn = NCCC[C@H](N)C(=O)O
# Columns and labels:
# [1] = target: T1, Fusion molecule SEQ ID NO: 134 (hNGAL muteins SEQ ID NOs: 36, 16, 53 and 62) (Homo sapiens, UniProt P80188, A60T/C107S/D97H, form not given/K145I/K154W/K93R/L123T/L56V/L90R/N85D/Q69G/R101D/R92I/S147R/S88D/T74A/W99Y/Y126Q/Y152I/Y72N); assay: Surface plasmon resonance (Biacore T200); format: binding; conditions: for binding: SPR
# T1 construct: made in house; host or cells: HEK293
# T1 sequence (P80188 with tags, fused parts or gaps with the stated changes, form open): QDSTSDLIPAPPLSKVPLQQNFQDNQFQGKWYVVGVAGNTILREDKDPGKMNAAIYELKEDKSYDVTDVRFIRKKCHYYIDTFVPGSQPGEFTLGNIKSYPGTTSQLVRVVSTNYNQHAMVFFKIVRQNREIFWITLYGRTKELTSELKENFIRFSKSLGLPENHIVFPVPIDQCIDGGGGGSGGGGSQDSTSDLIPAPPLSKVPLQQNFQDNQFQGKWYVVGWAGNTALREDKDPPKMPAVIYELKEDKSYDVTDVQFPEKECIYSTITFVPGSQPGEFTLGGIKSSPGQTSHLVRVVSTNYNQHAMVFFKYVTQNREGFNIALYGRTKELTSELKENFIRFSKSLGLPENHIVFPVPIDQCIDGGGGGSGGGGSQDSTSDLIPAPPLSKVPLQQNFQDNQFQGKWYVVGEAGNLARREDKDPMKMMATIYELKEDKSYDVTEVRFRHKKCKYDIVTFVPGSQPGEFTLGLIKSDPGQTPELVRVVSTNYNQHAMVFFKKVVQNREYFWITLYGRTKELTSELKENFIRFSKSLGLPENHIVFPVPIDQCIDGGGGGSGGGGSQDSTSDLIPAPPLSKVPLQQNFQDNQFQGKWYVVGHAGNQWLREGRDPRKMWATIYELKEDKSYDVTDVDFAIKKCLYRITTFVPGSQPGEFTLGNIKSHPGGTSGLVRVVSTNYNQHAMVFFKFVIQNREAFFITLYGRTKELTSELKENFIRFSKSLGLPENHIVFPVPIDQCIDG
# [2] = target: T2, hNGAL (human lipocalin 2, parent wild type SEQ ID NO: 1) mutein SEQ ID NO: 62 (Homo sapiens, UniProt P80188, A60Q/C107S/D65G/D97L/I61W/K145F/K154F/K66R/K93I/L123G/L56H/L90D/N85D/Q69R/R101T/R92A/S147I/S88D/W99R/Y120H/Y126G/Y152A/Y72W); assay: Surface plasmon resonance (Biacore T200), CM5 chip; format: binding; conditions: SPR, high concentrations (≥1 μM)
# T2 construct: made in house
# Experimental: (§1) Subsequently, 5 μg/mL of mutein or the negative control solution in 10 mM acetate pH 4.0 was applied at a flow rate of 10 μl/min until a high immobilization level of approximately 2000 RU was achieved. Residual activated groups were quenched with ethanolamine. The reference channels were treated with EDC/NHS following ethanolamine (blank immobilization).
# The binding assay was carried out with a contact time of 180 s, dissociation times of 1200-1800 s and applying a flow rate of 30 μl/min. Measurements were performed at 25° C. Regeneration of the immobilized mutein surface was achieved by three consecutive injections of 10 mM Gly-HCl pH 1.5 (120 s) followed by an extra wash with running buffer and a stabilization period. Data were evaluated with Biacore T200 Evaluation software (V 1.0). Double referencing was used. The 1:1 Binding model was used to fit the raw data.
# Subsequently, 5 μg/mL of mutein or the negative control solution in 10 mM acetate pH 4.0 was applied at a flow rate of 10 μl/min until a high immobilization level of approximately 2000 RU was achieved. Residual activated groups were quenched with ethanolamine. The reference channels were treated with EDC/NHS following ethanolamine (blank immobilization). […] The binding assay was carried out with a contact time of 180 s, dissociation times of 1500-1800 s and applying a flow rate of 30 μl/min. Measurements were performed at 25° C. Regeneration of the immobilized mutein surface was achieved by three consecutive injections of 10 mM Gly-HCl pH 1.5 (120 s) followed by an extra wash with running buffer and a stabilization period. Data were evaluated with Biacore T200 Evaluation software (V 1.0). Double referencing was used. The 1:1 Binding model was used to fit the raw data.
# [3] = target: lipocalin negative control SEQ ID NO: 64 (Homo sapiens, UniProt P80188, C107S/Q48H); assay: Surface plasmon resonance (Biacore T200); format: binding
# Experimental: (§2) In a Surface Plasmon Resonance (SPR) based assay a Biacore T200 instrument (GE Healthcare) was used to measure the binding affinity of muteins to pyoverdine I succinyl, -succinamide, -α-ketoglutaryl with complexed iron ion or to pyoverdine II succinyl, -succinamide, -α-ketoglutaryl with complexed iron ion or to pyoverdine III succinyl, -succinamide, -α-ketoglutaryl with complexed iron ion. Muteins selected for binding to pyoverdines and negative control (SEQ ID NO: 64) were biotinylated for 2 h at room temperature applying an appropriate excess of EZ-Link NHS-PEG4-Biotin (Thermo, Cat #21329) followed by separation of non-reacted Biotin using a Zebra Spin Desalting Plate (Thermo, Cat #21329) according to the manufactures instructions.
# (§3) In the SPR affinity assay, biotinylated muteins and negative control were captured on a sensor chip CAP using the Biotin CAPture Kit (GE Healthcare): Sensor Chip CAP is pre-immobilized with an ssDNA oligo. Undiluted Biotin CAPture Reagent (streptavidin conjugated with the complementary ss-DNA oligo) was applied at a flow rate of 2 μl/min for 300 s. Subsequently, 1 μg/ml to 100 μg/mL of biotinylated muteins or negative control were applied for 300 s at a flow rate of 5 μl/min. The reference channel was loaded with Biotin CAPture Reagent only.
# (§4) Applying a flow rate of 30 μl/min, a single cycle or multi cycle kinetics approach was used with a sample contact time of 120-180 s and a dissociation time of 900-2400 s. […] After ligand immobilization, for analysis using single cycle kinetics all 4-5 concentrations of Pvd were applied consecutively in ascending order before the dissociation was monitored. For analysis using multi cycle kinetics 4 dilutions of Pvd were applied, each followed a dissociation phase. All measurements were performed at 25° C. […] Data were evaluated with Biacore T200 Evaluation software (V 1.0). Double referencing was used. A 1:1 Binding model was used to fit the raw data.
# as §1
# In the SPR affinity assay, biotinylated muteins and negative control were captured on a sensor chip CAP using the Biotin CAPture Kit (GE Healthcare), wherein the Sensor Chip CAP is pre-immobilized with an ssDNA oligo. Undiluted Biotin CAPture Reagent (streptavidin conjugated with the complementary ss-DNA oligo) was applied at a flow rate of 2 μl/min for 300 s. Subsequently, 20 μg/ml to 100 μg/mL of biotinylated muteins or fusion molecule negative control were applied for 300 s at a flow rate of 5 μl/min. The reference channel was loaded with Biotin CAPture Reagent only. To determine the binding affinity, four dilutions of the respective Pvd were prepared in HBS-EP+ buffer (GE Healthcare) and applied to the chip surface. Applying a flow rate of 30 μl/min, a single cycle kinetics approach was used with a sample contact time of 180 s and a dissociation time of 1800-2400 s. […] After ligand immobilization, the four concentrations of Pvd were applied consecutively in ascending order before the dissociation was monitored. All measurements were performed at 25° C. […] Data were evaluated with Biacore T200 Evaluation software (V 1.0). Double referencing was preformed. A 1:1 binding model was used to fit the raw data.
# [4] = target: T3, hNGAL (human lipocalin 2, parent wild type SEQ ID NO: 1) mutein SEQ ID NO: 53 (Homo sapiens, UniProt P80188, A60L/C107S/D97K/I61A/K154W/K93H/L123Q/L56E/L62R/L90R/N116L/N85D/Q69M/R101V/S125P/S147V/S88E/W99D/Y120D/Y126E/Y72M); assay: Surface plasmon resonance (Biacore T200); format: binding; conditions: SPR, 25° C., Table 2C
# T3 construct: made in house; host or cells: E. coli
# Experimental: as §2, §3, §4
# In a surface plasmon resonance (SPR) based assay, a Biacore T200 instrument (GE Healthcare) was used to measure the binding affinity of individual muteins or fusion molecules to pyoverdine siderophores (to pyoverdine I succinyl, -succinamide, -α-ketoglutaryl with complexed iron ion or to pyoverdine II succinyl, -succinamide, -α-ketoglutaryl with complexed iron ion or to pyoverdine III succinyl, -succinamide, -α-ketoglutaryl with complexed iron ion). To this end, muteins selected for binding to pyoverdines (SEQ ID NOs: 16, 36, 53), a fusion molecule (SEQ ID NO: 134) and a negative control (SEQ ID NO: 64) were biotinylated for 2 h at room temperature applying an appropriate excess of EZ-Link NHS-PEG4-Biotin (Thermo, Cat #21329) followed by separation of non-reacted biotin using a Zebra Spin Desalting Plate (Thermo, Cat #21329) according to the manufacturer's instructions.
# In the SPR affinity assay, biotinylated muteins and negative control were captured on a sensor chip CAP using the Biotin CAPture Kit (GE Healthcare), wherein the Sensor Chip CAP is pre-immobilized with an ssDNA oligo. Undiluted Biotin CAPture Reagent (streptavidin conjugated with the complementary ss-DNA oligo) was applied at a flow rate of 2 μl/min for 300 s. Subsequently, 20 μg/ml to 100 μg/mL of biotinylated muteins or fusion molecule negative control were applied for 300 s at a flow rate of 5 μl/min. The reference channel was loaded with Biotin CAPture Reagent only. To determine the binding affinity, four dilutions of the respective Pvd were prepared in HBS-EP+ buffer (GE Healthcare) and applied to the chip surface. Applying a flow rate of 30 μl/min, a single cycle kinetics approach was used with a sample contact time of 180 s and a dissociation time of 1800-2400 s. […] After ligand immobilization, the four concentrations of Pvd were applied consecutively in ascending order before the dissociation was monitored. All measurements were performed at 25° C. […] Data were evaluated with Biacore T200 Evaluation software (V 1.0). Double referencing was preformed.
# [5] = target: T4, hNGAL (human lipocalin 2, parent wild type SEQ ID NO: 1) mutein SEQ ID NO: 44 (Homo sapiens, UniProt P80188, A60L/C107S/D97K/I61T/K154W/K93R/L123Q/L56E/L90R/N116V/Q48H/Q69M/R101V/S147V/S88E/W99D/Y120D/Y126E/Y72M); assay: Solution binding ELISA
# T4 construct: made in house; host or cells: E. coli
# Experimental: (§5) The concentration of free (non ligand-bound) muteins was determined via a quantitative ELISA setup.
# (§6) In detail, a 384-well plate suitable for fluorescence measurements (Greiner FLUOTRAC™ 600, black flat bottom, high-binding) was coated with 20 μl of Neutravidin at a concentration of 5 μg/ml in PBS overnight at 4 C. After washing, the Neutravidin-coated wells were blocked with 100 μl blocking buffer containing 0.1% Tween 20 and 2% BSA (PBS-T/BSA) for 1 h at room temperature.
# (§7) The residual supernatants were discarded and 20 μl HRP-labeled anti-hNGAL antibody was added at a predetermined optimal concentration in PBS-T/BSA and incubated for 1 h at RT. […] After washing, 20 μl fluorogenic HRP substrate (QuantaBlu, Thermo) was added to each well, and the reaction was allowed to proceed for 15 to 60 minutes. The fluorescence intensity of every well on the plate was read using a fluorescence microplate reader (Tecan or Molecular Devices). […] Curve fitting was performed using GraphPad Prism 4 software.
# [6] = target: T5, Fusion molecule SEQ ID NO: 134 (hNGAL muteins SEQ ID NOs: 36, 16, 53 and 62) (Homo sapiens, UniProt P80188, A60T/C107S/D97H, form not given/K145I/K154W/K93R/L123T/L56V/L90R/N85D/Q69G/R101D/R92I/S147R/S88D/T74A/W99Y/Y126Q/Y152I/Y72N); assay: Solution binding ELISA; conditions: binding to target in solution, tracer 0.1 nM, Table 11
# T5 construct: made in house
# T5 sequence (P80188 with tags, fused parts or gaps with the stated changes, form open): as above
# [7] = target: T6, hNGAL (human lipocalin 2, parent wild type SEQ ID NO: 1) mutein SEQ ID NO: 48 (Homo sapiens, UniProt P80188, A60L/C107S/D67N/D97K/I61A/K154W/K93H/L123Q/L56E/L90R/N116L/Q48H/Q69M/R101V/S125P/S147V/S88E/T165P/W99D/Y120D/Y126E/Y72M); assay: Solution binding ELISA
# T6 construct: made in house; host or cells: E. coli
# Experimental: as §5, §6, §7
# [8] = target: T7, hNGAL (human lipocalin 2, parent wild type SEQ ID NO: 1) mutein SEQ ID NO: 43 (Homo sapiens, UniProt P80188, A60L/C107S/D97K/I61A/K154W/K93Q/L123Q/L56E/L90R/N116L/Q48H/Q69M/R101V/S147V/S88E/W99D/Y120D/Y126E/Y72M); assay: Solution binding ELISA
# T7 construct: made in house; host or cells: E. coli
# Experimental: as §5, §6, §7
# [9] = target: T8, hNGAL (human lipocalin 2, parent wild type SEQ ID NO: 1) mutein SEQ ID NO: 42 (Homo sapiens, UniProt P80188, A60L/C107S/D97Q/I61A/K154W/K93H/L123Q/L56E/L90R/N116L/Q48H/Q69K/R101A/S147V/S88E/W99D/Y120D/Y126E/Y152F/Y72M); assay: Solution binding ELISA
# T8 construct: made in house; host or cells: E. coli
# Experimental: as §5, §6, §7
# [10] = target: T3, hNGAL (human lipocalin 2, parent wild type SEQ ID NO: 1) mutein SEQ ID NO: 53; assay: Solution binding ELISA; conditions: Example 5
# Experimental: as §5, §6, §7
# The concentration of free (non ligand-bound) mutein or fusion molecule construct was determined via a quantitative ELISA setup.
# In detail, a 384-well plate suitable for fluorescence measurements (Greiner FLUOTRAC™ 600, black flat bottom, high-binding) was coated with 20 μl of Neutravidin at a concentration of 5 μg/ml in PBS overnight at 4° C. After washing, the Neutravidin-coated wells were blocked with 100 μl blocking buffer containing 0.1% Tween 20 and 2% BSA (PBS-T/BSA) for 1 h at room temperature.
# The residual supernatants were discarded and 20 μl HRP-labeled anti-hNGAL antibody was added at a predetermined optimal concentration in PBS-T/BSA and incubated for 1 h at RT. […] After washing, 20 μl fluorogenic HRP substrate (QuantaBlu, Thermo) was added to each well, and the reaction was allowed to proceed for 15 to 60 minutes. The fluorescence intensity of every well on the plate was read using a fluorescence microplate reader (Tecan or Molecular Devices). […] IC50 values were fitted by nonlinear regression with a single-sites binding model. Curve fitting was performed using GraphPad Prism 4 software.
# [11] = target: T9, hNGAL (human lipocalin 2, parent wild type SEQ ID NO: 1) mutein SEQ ID NO: 45 (Homo sapiens, UniProt P80188, A60L/C107S/D97K/I61A/K154W/K93H/L123Q/L56E/L90R/N116L/Q48H/Q69M/R101V/S147V/S88E/W99D/Y120D/Y126E/Y72M); assay: Solution binding ELISA
# T9 construct: made in house; host or cells: E. coli
# Experimental: as §5, §6, §7
# [12] = target: T10, hNGAL (human lipocalin 2, parent wild type SEQ ID NO: 1) mutein SEQ ID NO: 46 (deletion of G-N-I-K, positions 95-98) (Homo sapiens, UniProt P80188, A60L/C107S/D97Q/DEL115-118/I61A/K154W/K93Y/L123Q/L56E/L90R/Q48H/Q69K/R101V/S147V/S88E/W99D/Y120E/Y126E/Y152F/Y72M); assay: Solution binding ELISA
# T10 construct: made in house; host or cells: E. coli
# Experimental: as §5, §6, §7
# [13] = target: T11, hNGAL (human lipocalin 2, parent wild type SEQ ID NO: 1) mutein SEQ ID NO: 47 (Homo sapiens, UniProt P80188, A60L/C107S/D97K/I61A/K154W/K93H/L123Q/L56E/L62R/L90R/N116L/Q48H/Q69M/R101V/S125P/S147V/S88E/W99D/Y120D/Y126E/Y72M); assay: Solution binding ELISA
# T11 construct: made in house; host or cells: E. coli
# Experimental: as §5, §6, §7
# [14] = target: T12, hNGAL (human lipocalin 2, parent wild type SEQ ID NO: 1) mutein SEQ ID NO: 39 (Homo sapiens, UniProt P80188, A60R/C107S/D97A/I61W/K145T/K154E/K93L/L123P/L56F/L90N/N116R/Q48H/Q69I/R101S/R92W/S147I/S88Q/W99S/Y120I/Y126E/Y152F); conditions: solution binding ELISA
# T12 construct: made in house; host or cells: E. coli
# Experimental: as §5, §6, §7
# [15] = target: T13, hNGAL (human lipocalin 2, parent wild type SEQ ID NO: 1) mutein SEQ ID NO: 50 (Homo sapiens, UniProt P80188, A60L/C107S/D97K/I61A/K154W/K93H/L123Q/L56E/L62R/L90R/N116L/N85D/Q48H/Q69M/R101V/S125P/S147V/S88E/W99D/Y120D/Y126E/Y72M); assay: Solution binding ELISA; conditions: Example 5
# T13 construct: made in house; host or cells: E. coli
# Experimental: as §5, §6, §7
# [16] = target: hNGAL (human lipocalin 2), wild type, SEQ ID NO: 1 (Homo sapiens, UniProt P80188); conditions: cited from earlier work
# Sequence of hNGAL (human lipocalin 2), wild type, SEQ ID NO: 1 (P80188 21-198): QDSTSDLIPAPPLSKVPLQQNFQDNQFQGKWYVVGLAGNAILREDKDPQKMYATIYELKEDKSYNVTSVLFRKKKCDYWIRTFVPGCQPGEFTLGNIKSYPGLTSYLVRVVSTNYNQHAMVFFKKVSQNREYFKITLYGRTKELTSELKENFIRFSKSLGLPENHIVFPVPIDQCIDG
# T9 sequence (P80188 other isoform, or with tags, fused parts or gaps with the stated changes): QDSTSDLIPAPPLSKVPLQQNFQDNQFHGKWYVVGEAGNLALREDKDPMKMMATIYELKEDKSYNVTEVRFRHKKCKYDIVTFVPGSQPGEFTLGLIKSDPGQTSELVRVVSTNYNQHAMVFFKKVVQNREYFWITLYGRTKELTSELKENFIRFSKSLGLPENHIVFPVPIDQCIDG
# T12 sequence (P80188 other isoform, or with tags, fused parts or gaps with the stated changes): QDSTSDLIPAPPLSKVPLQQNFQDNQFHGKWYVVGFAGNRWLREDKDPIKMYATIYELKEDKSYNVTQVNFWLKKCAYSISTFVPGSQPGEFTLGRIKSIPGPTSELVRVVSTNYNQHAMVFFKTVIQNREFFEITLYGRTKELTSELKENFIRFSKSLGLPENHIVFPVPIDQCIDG
# T4 sequence (P80188 other isoform, or with tags, fused parts or gaps with the stated changes): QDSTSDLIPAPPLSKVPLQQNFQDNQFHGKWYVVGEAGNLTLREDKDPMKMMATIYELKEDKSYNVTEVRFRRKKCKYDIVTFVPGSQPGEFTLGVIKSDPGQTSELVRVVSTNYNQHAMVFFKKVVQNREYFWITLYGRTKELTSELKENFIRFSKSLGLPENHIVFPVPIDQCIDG
# T8 sequence (P80188 other isoform, or with tags, fused parts or gaps with the stated changes): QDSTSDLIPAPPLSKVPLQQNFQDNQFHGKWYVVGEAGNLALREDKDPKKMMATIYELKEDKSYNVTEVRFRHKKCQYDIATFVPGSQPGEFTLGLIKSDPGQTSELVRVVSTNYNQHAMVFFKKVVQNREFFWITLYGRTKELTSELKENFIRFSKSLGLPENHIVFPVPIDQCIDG
# T10 sequence (P80188 other isoform, or with tags, fused parts or gaps with the stated changes): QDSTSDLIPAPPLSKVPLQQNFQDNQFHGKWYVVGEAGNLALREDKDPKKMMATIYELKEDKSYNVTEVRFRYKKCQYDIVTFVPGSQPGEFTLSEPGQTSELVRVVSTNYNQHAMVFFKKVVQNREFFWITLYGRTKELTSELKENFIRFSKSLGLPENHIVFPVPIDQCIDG
# T3 sequence (P80188 21-198 with the stated changes): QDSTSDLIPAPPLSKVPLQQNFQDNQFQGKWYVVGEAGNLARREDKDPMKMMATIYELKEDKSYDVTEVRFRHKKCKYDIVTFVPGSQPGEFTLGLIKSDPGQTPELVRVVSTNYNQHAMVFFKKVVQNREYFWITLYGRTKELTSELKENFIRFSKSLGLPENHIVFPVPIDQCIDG
# T7 sequence (P80188 other isoform, or with tags, fused parts or gaps with the stated changes): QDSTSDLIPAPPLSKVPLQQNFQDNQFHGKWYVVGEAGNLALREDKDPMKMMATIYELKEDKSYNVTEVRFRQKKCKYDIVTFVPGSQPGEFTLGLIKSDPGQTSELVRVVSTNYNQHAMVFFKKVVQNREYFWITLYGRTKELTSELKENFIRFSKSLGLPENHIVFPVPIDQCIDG
# T11 sequence (P80188 other isoform, or with tags, fused parts or gaps with the stated changes): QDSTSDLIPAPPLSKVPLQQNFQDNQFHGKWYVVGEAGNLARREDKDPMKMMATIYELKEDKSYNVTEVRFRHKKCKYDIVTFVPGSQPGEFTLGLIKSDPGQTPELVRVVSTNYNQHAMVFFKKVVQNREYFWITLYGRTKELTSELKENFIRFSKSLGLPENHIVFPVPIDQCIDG
# Sequence of lipocalin negative control SEQ ID NO: 64 (P80188 21-198 Q48H/C107S): as the sequence (P80188 21-198) above, with Q28H, C87S counted along it
# T13 sequence (P80188 other isoform, or with tags, fused parts or gaps with the stated changes): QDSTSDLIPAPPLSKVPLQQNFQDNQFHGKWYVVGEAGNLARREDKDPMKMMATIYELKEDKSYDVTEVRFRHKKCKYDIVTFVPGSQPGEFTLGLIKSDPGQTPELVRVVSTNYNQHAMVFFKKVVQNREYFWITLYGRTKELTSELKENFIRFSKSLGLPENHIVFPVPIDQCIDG
# T6 sequence (P80188 other isoform, or with tags, fused parts or gaps with the stated changes): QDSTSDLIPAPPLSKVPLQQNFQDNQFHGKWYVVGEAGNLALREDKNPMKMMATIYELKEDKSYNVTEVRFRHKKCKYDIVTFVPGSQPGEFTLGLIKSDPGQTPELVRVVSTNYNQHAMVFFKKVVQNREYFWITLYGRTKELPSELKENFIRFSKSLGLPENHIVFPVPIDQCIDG
# T2 sequence (P80188 21-198 with the stated changes): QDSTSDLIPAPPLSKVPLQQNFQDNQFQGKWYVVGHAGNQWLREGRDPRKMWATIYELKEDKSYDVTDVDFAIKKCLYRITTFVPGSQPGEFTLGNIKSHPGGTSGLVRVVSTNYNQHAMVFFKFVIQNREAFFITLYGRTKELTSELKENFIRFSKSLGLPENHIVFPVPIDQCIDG
compound,measurement,setting,value
"CC(=O)N(O)CCCCCNC(=O)CCC(=O)N(O)CCCCCNC(=O)CCC(=O)N(O)CCCCCN [Desferoxamin, desferoxamine]",KD,"[1]; Biacore, 25° C., Table 13",no bdg
same,binding,[1]; high concentrations (≥1 μM),absence of binding
same,binding,[2],absence of binding
"NC(=O)CC[C@H](NC(=O)[C@H](CCCN([O-])C=O)NC(=O)[C@@H]1CCN=C([C@@H](CO)NC(=O)[C@@H]2CCNc3c(NC(=O)CCC(=O)O)cc4cc([O-])c([O-])cc4[n+]32)N1)C(=O)N[C@H](CCC(N)=O)C(=O)N[C@H](CCCN([O-])C=O)C(=O)NCC(=O)O.[Fe+3] [Pvd III s (+Fe), Pvd type III succinyl]",binding,"[3]; SPR, analyte at 1200 nM",absence of binding
"NC(=O)CC[C@H](NC(=O)[C@H](CCCN([O-])C=O)NC(=O)[C@@H]1CCN=C([C@@H](CO)NC(=O)[C@@H]2CCNc3c(NC(=O)C(=O)CCC(=O)O)cc4cc([O-])c([O-])cc4[n+]32)N1)C(=O)N[C@H](CCC(N)=O)C(=O)N[C@H](CCCN([O-])C=O)C(=O)NCC(=O)O.[Fe+3] [Pvd III aKG (+Fe), Pvd type III α-ketoglutaryl]",Kd,[4],3.6 nM
same,koff,[4],0.00014 s⁻¹
same,kon,[4],38800 M⁻¹ s⁻¹
same,Kd,"[1]; Biacore, 25° C., Table 13",1.04 nM
same,IC50,[5],0.93 nM
same,IC50,[6],0.58 nM
same,IC50,[7],0.95 nM
same,IC50,[8],1.4 nM
same,IC50,[9],78 nM
same,IC50,[10],0.54 nM
same,IC50,[11],1.5 nM
same,IC50,[12],1.02 nM
same,IC50,[13],0.82 nM
same,IC50,[14],23 nM
same,IC50,[15],0.95 nM
CN1[C@@H]([C@H]2CSC(c3ccccc3O)=N2)SC[C@H]1C(=O)O [pyochelin],binding,[1]; His-tagged fusion captured via Ni-NTA,clearly detectable
same,binding,"[3]; Biacore, Example 18",did not show binding
same,binding,[16],does not bind
"NC(=O)CC[C@H](NC(=O)[C@H](CCCN(O)C=O)NC(=O)[C@@H]1CCN=C([C@@H](CO)NC(=O)[C@@H]2CCNc3c(NC(=O)C(=O)CCC(=O)O)cc4cc(O)c(O)cc4[n+]32)N1)C(=O)N[C@H](CCC(N)=O)C(=O)N[C@H](CCCN(O)C=O)C(=O)NCC(=O)O [Pvd III aKG (−Fe), Pvd type III α-ketoglutaryl]",Kd,"[1]; Biacore, 25° C., Table 13",18.7 nM
same,IC50,[5],1.1 nM
same,IC50,[6],0.7 nM
same,IC50,[7],0.64 nM
same,IC50,[8],1.9 nM
same,IC50,[9],69 nM
same,IC50,[10],0.33 nM
same,IC50,[11],1.7 nM
same,IC50,[12],1.2 nM
same,IC50,[13],0.58 nM
same,IC50,[14],23 nM
same,IC50,[15],0.82 nM
"NC(=O)CCC(=O)Nc1cc2cc(O)c(O)cc2[n+]2c1NCC[C@H]2C(=O)N[C@H](CO)C1=NCC[C@@H](C(=O)N[C@@H](CCCN(O)C=O)C(=O)N[C@@H](CCC(N)=O)C(=O)N[C@H](CCC(N)=O)C(=O)N[C@H](CCCN(O)C=O)C(=O)NCC(=O)O)N1 [Pvd III sa (−Fe), Pvd type III succinamide]",Kd,"[1]; Biacore, 25° C., Table 13",1.65 nM
same,IC50,[5],0.21 nM
same,IC50,[6],0.27 nM
same,IC50,[7],0.24 nM
same,IC50,[8],0.46 nM
same,IC50,[9],7.2 nM
same,IC50,[10],0.63 nM
same,IC50,[11],0.46 nM
same,IC50,[12],0.3 nM
same,IC50,[13],0.28 nM
same,IC50,[14],94 nM
same,IC50,[15],0.37 nM
pyoverdine,binding,[2],absence of binding
same,binding,"[3]; Biacore, Example 18",did not show binding
same,binding,[16],does not bind
"NC(=O)CCC(=O)Nc1cc2cc([O-])c([O-])cc2[n+]2c1NCC[C@H]2C(=O)N[C@H](CO)C1=NCC[C@@H](C(=O)N[C@@H](CCCN([O-])C=O)C(=O)N[C@@H](CCC(N)=O)C(=O)N[C@H](CCC(N)=O)C(=O)N[C@H](CCCN([O-])C=O)C(=O)NCC(=O)O)N1.[Fe+3] [Pvd III sa (+Fe), Pvd type III succinamide]",Kd,[4],0.58 nM
same,koff,[4],3.9e-05 s⁻¹
same,kon,[4],67300 M⁻¹ s⁻¹
same,Kd,"[1]; Biacore, 25° C., Table 13",0.27 nM
same,IC50,[5],0.26 nM
same,IC50,[6],0.31 nM
same,IC50,[7],0.22 nM
same,IC50,[8],0.25 nM
same,IC50,[9],15 nM
same,IC50,[10],0.25 nM
same,IC50,[11],0.43 nM
same,IC50,[12],0.3 nM
same,IC50,[13],0.3 nM
same,IC50,[14],147 nM
same,IC50,[15],0.35 nM
O=C(N[C@H]1COC(=O)[C@@H](NC(=O)c2cccc(O)c2O)COC(=O)[C@@H](NC(=O)c2cccc(O)c2O)COC1=O)c1cccc(O)c1O.[Fe+3] [enterobactin],binding,[16],high affinity
"C[C@@H](O)[C@@H](NC(=O)CNC(=O)[C@H](CCCN)NC(=O)[C@@H](CCCN([O-])C=O)NC(=O)[C@@H](CO)NC(=O)[C@@H]1CCNc2c(NC(=O)CCC(=O)O)cc3cc([O-])c([O-])cc3[n+]21)C(=O)N[C@@H](CO)C(=O)N[C@H]1CCCN([O-])C1=O.[Fe+3] [Pvd II s (+Fe), Pvd type II succinyl] (Suc-[X1][dS][dOrn(N5-OH,N5-CHO)][Orn]G[d(aThr)]S-X2)",binding,"[3]; SPR, analyte at 1200 nM",absence of binding
